We go through 24 compounds from patent US10336762B2 (priority 2017, dated 2019).

One assay has as its target IRAK4 enzyme (Homo sapiens (Human), UniProt Q9NWZ3). The assay is described as follows: biochemical. The class given is biochemical. As to conditions: IRAK4 enzyme, TR-FRET, 500 μM ATP. A general note: In TR-FRET formats the signal depends on donor and acceptor labels being close together.
The next assay has as its system TNFα. Nature of the assay: cells. The following applies: Homo sapiens, Monocyte, LPS-stimulated human monocytes, TNFα by TR-FRET; read-out: EC50 TNF. Format: cell-based, human.

The structures appear in SMILES notation.

Sequence of IRAK4 enzyme (Q9NWZ3 whole entry): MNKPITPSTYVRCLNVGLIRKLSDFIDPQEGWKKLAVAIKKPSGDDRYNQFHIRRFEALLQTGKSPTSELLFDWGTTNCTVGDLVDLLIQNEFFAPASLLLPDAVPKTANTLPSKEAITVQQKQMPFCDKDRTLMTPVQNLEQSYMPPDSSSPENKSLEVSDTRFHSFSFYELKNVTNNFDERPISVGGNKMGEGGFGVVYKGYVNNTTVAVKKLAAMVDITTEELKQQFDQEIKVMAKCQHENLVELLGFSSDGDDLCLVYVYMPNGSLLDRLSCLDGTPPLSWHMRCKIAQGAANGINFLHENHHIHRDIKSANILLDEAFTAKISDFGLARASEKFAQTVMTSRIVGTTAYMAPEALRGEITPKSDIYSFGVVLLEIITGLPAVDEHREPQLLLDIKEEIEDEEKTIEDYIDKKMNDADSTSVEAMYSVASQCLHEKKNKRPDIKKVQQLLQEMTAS

What is called IC50 is the concentration at which inhibition is half-maximal. Low values mean higher potency, high ones lower potency. Broadly, the EC50 is the concentration needed to bring the measured effect to its halfway point. On IRAK4 enzyme, `CN1CCN(C(=O)CCNC(=O)c2cnc(-c3ccc4cc(C#N)cnn34)cc2NC23CCC(O)(CC2)CC3)CC1` [Example 806, 6-(3-cyanopyrrolo[1,2-b]pyridazin-7-yl)-4-((4-hydroxybicyclo[2.2.2]octan-1-yl)amino)-N-(3-(4-methylpiperazin-1-yl)-3-oxopropyl)nicotinamide] displayed a concentration for half-maximal inhibition (IC50) of 3 nM. In the assay on TNFα, the concentration giving a half-maximal response (EC50) was 349 nM.

Take `CC(C)Nc1cc(-c2ccc3cc(C#N)cnn23)ncc1C(=O)NCC(=O)N1CC(F)(F)C1` [Example 807, 6-(3-cyanopyrrolo[1,2-b]pyridazin-7-yl)-N-(2-(3,3-difluoroazetidin-1-yl)-2-oxoethyl)-4-(isopropylamino) nicotinamide]: on IRAK4 enzyme, the concentration for half-maximal inhibition (IC50) came out at 2 nM. For the same compound, in the assay on TNFα, the EC50 was found to be 75 nM.

For `CC(C)(C)OC(=O)CNC(=O)c1cnc(-c2ccc3cc(C#N)cnn23)cc1NC12CCC(O)(CC1)CC2` [Example 808, tert-butyl (6-(3-cyano-pyrrolo[1,2-b]pyridazin-7-yl)-4-((4-hydroxy-bicyclo[2.2.2]octan-1-yl)amino)nicotinoyl) glycinate], the concentration for half-maximal inhibition (IC50) at IRAK4 enzyme is less than 1 nM. Further, the EC50 in the assay on TNFα was determined as 15 nM.

With `N#Cc1cnn2c(-c3cc(NC45CCC(O)(CC4)CC5)c(C(=O)NCCN4CCCC4=O)cn3)ccc2c1` [Example 809, 6-(3-cyanopyrrolo[1,2-b]pyridazin-7-yl)-4-((4-hydroxybicyclo[2.2.2]octan-1-yl)amino)-N-(2-(2-oxopyrrolidin-1-yl)ethyl)nicotinamide], the IC50 on IRAK4 enzyme worked out at 1 nM. Besides, the concentration for a half-maximal effect (EC50) in the assay on TNFα worked out at 166 nM.

Regarding `CC(C)(O)C(=O)CNC(=O)c1cnc(-c2ccc3cc(C#N)cnn23)cc1NC12CCC(O)(CC1)CC2` [Example 810, 6-(3-cyanopyrrolo[1,2-b]pyridazin-7-yl)-N-(3-hydroxy-3-methyl-2-oxobutyl)-4-((4-hydroxy-bicyclo[2.2.2]octan-1-yl)amino)nicotinamide], on IRAK4 enzyme, the half-inhibitory concentration (IC50) is less than 1 nM. The 50% effective concentration (EC50) in the assay with TNFα amounted to 9 nM.

`N#Cc1cnn2c(-c3cc(NC45CCC(O)(CC4)CC5)c(C(=O)NCC(=O)c4ccccc4)cn3)ccc2c1` [Example 811, 6-(3-cyanopyrrolo[1,2-b]pyridazin-7-yl)-4-((4-hydroxybicyclo[2.2.2]octan-1-yl)amino)-N-(2-oxo-2-phenylethyl) nicotinamide]: at IRAK4 enzyme, the IC50 is less than 1 nM. Further, in the assay with TNFα, the EC50 is 32 nM.

`CC(C)Nc1cc(-c2ccc3cc(C#N)cnn23)ncc1C(=O)NCC(=O)OC(C)(C)C` [Example 812, tert-butyl (6-(3-cyano-pyrrolo[1,2-b]pyridazin-7-yl)-4-(isopropylamino)nicotinoyl)glycinate] displayed an IC50 against IRAK4 enzyme of less than 1 nM. Besides, the EC50 in the assay on TNFα was determined as 38 nM.

`CC(C)(C)NC(=O)CNC(=O)c1cnc(-c2ccc3cc(C#N)cnn23)cc1NC12CCC(O)(CC1)CC2` [Example 813, N-(2-(tert-butylamino)-2-oxoethyl)-6-(3-cyano-pyrrolo[1,2-b]pyridazin-7-yl)-4-((4-hydroxy-bicyclo[2.2.2]octan-1-yl)amino)nicotinamide] gave an IC50 on IRAK4 enzyme of less than 1 nM. Further, the concentration giving a half-maximal response (EC50) in the assay on TNFα came to 92 nM.

Regarding `CN(C(=O)CNC(=O)c1cnc(-c2ccc3cc(C#N)cnn23)cc1NC12CCC(O)(CC1)CC2)C(C)(C)C` [Example 814, N-(2-(tert-butyl(methyl)amino)-2-oxoethyl)-6-(3-cyanopyrrolo[1,2-b]pyridazin-7-yl)-4-((4-hydroxybicyclo[2.2.2]octan-1-yl)amino) nicotinamide], at IRAK4 enzyme, the 50% inhibitory concentration (IC50) is less than 1 nM. In the assay with TNFα, the 50% effective concentration (EC50) was found to be 40 nM.

For the compound `COC(=O)NC[C@H]1C[C@H](Nc2cc(-c3ccc4cc(C#N)cnn34)ncc2C(=O)NCC(=O)C(C)(C)O)C1` [Example 815, methyl (((1r,3r)-3-((2-(3-cyanopyrrolo[1,2-b]pyridazin-7-yl)-5-((3-hydroxy-3-methyl-2-oxobutyl)carbamoyl)pyridin-4-yl)amino)cyclo-butyl)methyl)carbamate], the half-inhibitory concentration (IC50) against IRAK4 enzyme is less than 1 nM. For the same compound, the 50% effective concentration (EC50) in the assay on TNFα worked out at 15 nM.

`COC(=O)NC[C@H]1C[C@H](Nc2cc(-c3ccc4cc(C#N)cnn34)ncc2C(=O)NCCC(C)(C)NC(=O)OC(C)(C)C)C1` [Example 816, methyl (((1r,3r)-3-((5-((3-((tert-butoxy-carbonyl)amino)-3-methylbutyl)carbamoyl)-2-(3-cyanopyrrolo[1,2-b]pyridazin-7-yl)pyridin-4-yl)amino)cyclobutyl)methyl)carbamate] came in with an IC50 against IRAK4 enzyme of less than 1 nM. Moreover, the concentration giving a half-maximal response (EC50) in the assay with TNFα amounted to 41 nM.

In the case of `CC(C)Nc1cc(-c2ccc3cccnn23)ncc1C(=O)NC[C@@H](F)C(C)(C)O` [Example 817, (R)-N-(2-fluoro-3-hydroxy-3-methylbutyl)-4-(isopropyl-amino)-6-(pyrrolo[1,2-b]pyridazin-7-yl)nicotinamide], the IC50 against IRAK4 enzyme was determined as 6 nM. In the assay with TNFα, the EC50 is 165 nM.

`COC(=O)NC[C@H]1C[C@H](Nc2cc(-c3ccc4cccnn34)ncc2C(=O)NC[C@@H](F)C(C)(C)O)C1` [Example 818, methyl (((1R,3r)-3-((5-(((R)-2-fluoro-3-hydroxy-3-methylbutyl)carbamoyl)-2-(pyrrolo[1,2-b]pyridazin-7-yl)pyridin-4-yl)amino)cyclo-butyl)methyl)carbamate] gave an IC50 against IRAK4 enzyme of 4 nM. Also, the EC50 with TNFα stood at 224 nM.

In turn, `COC(=O)NC[C@H]1C[C@H](Nc2cc(-c3ccc4cc(C#N)cnn34)ncc2C(=O)NCCC(C)(C)N)C1` [Example 819, methyl (((1r,3r)-3-((5-((3-amino-3-methylbutyl)carbamoyl)-2-(3-cyano-pyrrolo[1,2-b]pyridazin-7-yl)pyridin-4-yl)amino)cyclo-butyl)methyl)carbamate] returned an IC50 against IRAK4 enzyme of less than 1 nM. In the assay on TNFα, the concentration for a half-maximal effect (EC50) was determined as 27 nM.

With `CC(C)(O)[C@H](F)CNC(=O)c1cnc(-c2ccc3cc(C#N)cnn23)cc1Nc1ccc2ncccc2c1` [Example 820, (R)-6-(3-cyanopyrrolo[1,2-b]pyridazin-7-yl)-N-(2-fluoro-3-hydroxy-3-methylbutyl)-4-(quinolin-6-ylamino)nicotinamide], at IRAK4 enzyme, the IC50 is less than 1 nM. Further, the EC50 with TNFα turned out to be 59 nM.

`CC(C)(O)[C@H](F)CNC(=O)c1cnc(-c2ccc3cc(C#N)cnn23)cc1Nc1ccc2cnccc2n1` [Example 821, (R)-4-((1,6-naphthyridin-2-yl)amino)-6-(3-cyano-pyrrolo[1,2-b]pyridazin-7-yl)-N-(2-fluoro-3-hydroxy-3-methylbutyl)nicotinamide] returned an IC50 on IRAK4 enzyme of less than 1 nM. Further, in the assay on TNFα, the EC50 was 51 nM.

Turning to `CC(C)(O)[C@H](F)CNC(=O)c1cnc(-c2ccc3cc(C#N)cnn23)cc1N[C@H]1CC[C@H](N2CCOCC2)CC1` [Example 822, 6-(3-cyanopyrrolo[1,2-b]pyridazin-7-yl)-N-((R)-2-fluoro-3-hydroxy-3-methylbutyl)-4-(((1r,4R)-4-morpholinocyclohexyl)amino)nicotinamide], the midpoint of inhibition against IRAK4 enzyme, the IC50, lay at 1 nM. In addition, the half-maximal effective concentration (EC50) in the assay with TNFα came to 73 nM.

With `COCC(=O)NC[C@H]1C[C@H](Nc2cc(-c3ccc4cc(C#N)cnn34)ncc2C(=O)NC[C@@H](F)C(C)(C)O)C1` [Example 823, 6-(3-cyanopyrrolo[1,2-b]pyridazin-7-yl)-N-((R)-2-fluoro-3-hydroxy-3-methylbutyl)-4-(((1r,3R)-3-((2-methoxyacetamido)methyl)cyclobutyl)amino)nicotinamide], the IC50 against IRAK4 enzyme is less than 1 nM. Moreover, the EC50 in the assay on TNFα stood at 47 nM.

Turning to `CC(C)(C)C(=O)NC[C@H]1C[C@H](Nc2cc(-c3ccc4cc(C#N)cnn34)ncc2C(=O)NC[C@@H](F)C(C)(C)O)C1` [Example 824, 6-(3-cyanopyrrolo[1,2-b]pyridazin-7-yl)-N-((R)-2-fluoro-3-hydroxy-3-methylbutyl)-4-(((1r,3R)-3-(pivalamidomethyl)cyclo-butyl)amino)nicotinamide], the IC50 on IRAK4 enzyme was less than 1 nM. Moreover, the EC50 in the assay with TNFα came out at 39 nM.

With `CCCC(=O)NC[C@H]1C[C@H](Nc2cc(-c3ccc4cc(C#N)cnn34)ncc2C(=O)NC[C@@H](F)C(C)(C)O)C1` [Example 825, 4-(((1r,3R)-3-(butyramidomethyl)cyclo-butyl)amino)-6-(3-cyano-pyrrolo[1,2-b]pyridazin-7-yl)-N-((R)-2-fluoro-3-hydroxy-3-methylbutyl) nicotinamide], on IRAK4 enzyme, the 50% inhibitory concentration (IC50) is less than 1 nM. Moreover, in the assay on TNFα, the EC50 is 48 nM.

As to `CC(C)CC(=O)NC[C@H]1C[C@H](Nc2cc(-c3ccc4cc(C#N)cnn34)ncc2C(=O)NC[C@@H](F)C(C)(C)O)C1` [Example 826, 6-(3-cyanopyrrolo[1,2-b]pyridazin-7-yl)-N-((R)-2-fluoro-3-hydroxy-3-methylbutyl)-4-(((1r,3R)-3-((3-methylbutanamido)methyl)cyclobutyl)amino)nicotinamide], on IRAK4 enzyme, the IC50 was less than 1 nM. In addition, the EC50 with TNFα came out at 32 nM.

At IRAK4 enzyme, `CC1(C(=O)NC[C@H]2C[C@H](Nc3cc(-c4ccc5cc(C#N)cnn45)ncc3C(=O)NC[C@@H](F)C(C)(C)O)C2)CC1` [Example 827, 6-(3-cyanopyrrolo[1,2-b]pyridazin-7-yl)-N-((R)-2-fluoro-3-hydroxy-3-methylbutyl)-4-(((1r,3R)-3-((1-methylcyclopropane-1-carboxamido)methyl)cyclo-butyl)amino)nicotinamide] came in with an IC50 of less than 1 nM. Besides, the half-maximal effective concentration (EC50) in the assay on TNFα worked out at 15 nM.

On to `CC(C)(O)[C@H](F)CNC(=O)c1cnc(-c2ccc3cc(C#N)cnn23)cc1N[C@H]1C[C@H](CNC(=O)C2(F)CC2)C1` [Example 828, 6-(3-cyanopyrrolo[1,2-b]pyridazin-7-yl)-N-((R)-2-fluoro-3-hydroxy-3-methylbutyl)-4-(((1r,3R)-3-((1-fluorocyclopropane-1-carboxamido)methyl)cyclobutyl)amino) nicotinamide], for which, at IRAK4 enzyme, the concentration for half-maximal inhibition (IC50) is less than 1 nM. Further, in the assay on TNFα, the half-maximal effective concentration (EC50) is 12 nM.

With `CC(C)(O)[C@H](F)CNC(=O)c1cnc(-c2ccc3cc(C#N)cnn23)cc1N[C@H]1C[C@H](CNC(=O)C2(C(F)(F)F)CC2)C1` [Example 829, 6-(3-cyanopyrrolo[1,2-b]pyridazin-7-yl)-N-((R)-2-fluoro-3-hydroxy-3-methylbutyl)-4-(((1r,3R)-3-((1-(trifluoromethyl)cyclopropane-1-carboxamido)methyl)cyclobutyl)amino) nicotinamide], the half-inhibitory concentration (IC50) against IRAK4 enzyme was less than 1 nM. Moreover, the EC50 in the assay with TNFα stood at 23 nM.
